Test results as given in ChEMBL document CHEMBL1201862, “PubChem BioAssay data set” (2004).
Activity calls are given as the source filed them.

Experiments:
H4 = test: Luminescence Cell-Based Dose Response HTS to Identify Activators of 5'UTR Stem-Loop Driven Prion Protein mRNA Translation in H4 Neuroglioblastoma Cells. [Related pubchem assays: 1829 (Project Summary), 1814 (Primary HTS)]; format: functional; conditions: Homo sapiens
[1] = microbe, parasite or virus in culture; format: functional; conditions: Mycobacterium tuberculosis
HeLa = test: ATP-based viability loss in HeLa cells – cell-based, CellTiter-Glo luminescence, cherry-pick samples, cytotoxicity control for MITF activator project, dose response (AID 540259); format: functional; conditions: Homo sapiens
[2] = biological target: T1, Sentrin-specific protease 6 (Homo sapiens, UniProt Q9GZR1); format: functional;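 also: Luminescence-based dose-response confirmatory assay of SENP6 inhibition, following up an ultra-high-throughput screen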
T1 sequence (Q9GZR1 whole entry): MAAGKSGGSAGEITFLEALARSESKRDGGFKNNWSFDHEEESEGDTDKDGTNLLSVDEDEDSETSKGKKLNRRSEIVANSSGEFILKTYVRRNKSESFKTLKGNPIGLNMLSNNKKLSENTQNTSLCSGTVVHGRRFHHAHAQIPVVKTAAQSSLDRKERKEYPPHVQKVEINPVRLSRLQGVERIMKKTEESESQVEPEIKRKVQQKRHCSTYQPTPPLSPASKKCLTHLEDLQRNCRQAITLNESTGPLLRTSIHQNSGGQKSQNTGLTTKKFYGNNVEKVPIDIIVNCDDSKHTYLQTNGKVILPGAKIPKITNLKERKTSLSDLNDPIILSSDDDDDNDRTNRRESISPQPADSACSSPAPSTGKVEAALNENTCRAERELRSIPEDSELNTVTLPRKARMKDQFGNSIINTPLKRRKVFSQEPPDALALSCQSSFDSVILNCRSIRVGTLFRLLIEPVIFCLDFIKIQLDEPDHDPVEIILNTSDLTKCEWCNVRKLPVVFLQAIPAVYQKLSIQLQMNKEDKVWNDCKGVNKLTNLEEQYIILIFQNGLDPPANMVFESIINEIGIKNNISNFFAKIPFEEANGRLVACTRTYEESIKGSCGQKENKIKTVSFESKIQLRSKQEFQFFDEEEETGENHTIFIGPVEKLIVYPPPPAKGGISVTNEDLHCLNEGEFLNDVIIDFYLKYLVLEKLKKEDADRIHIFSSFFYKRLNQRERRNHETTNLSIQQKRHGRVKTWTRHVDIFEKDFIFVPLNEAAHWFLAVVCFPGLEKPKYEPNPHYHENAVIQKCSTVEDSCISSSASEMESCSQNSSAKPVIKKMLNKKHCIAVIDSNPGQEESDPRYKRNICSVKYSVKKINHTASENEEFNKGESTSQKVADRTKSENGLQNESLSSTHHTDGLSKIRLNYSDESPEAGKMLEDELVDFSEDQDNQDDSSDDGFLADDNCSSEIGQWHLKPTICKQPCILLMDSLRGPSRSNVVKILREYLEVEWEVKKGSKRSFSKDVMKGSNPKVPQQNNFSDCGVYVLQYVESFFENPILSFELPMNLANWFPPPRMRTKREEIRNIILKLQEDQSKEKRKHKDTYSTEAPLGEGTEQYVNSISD

Streptokinase A = biological target: T2, Streptokinase A (Streptococcus pyogenes serotype M1, UniProt P10520); test: viability-normalized secreted streptokinase activity reduction – plasminogen activation absorbance, OD405, dose response (AID 1914); format: functional, Streptococcus pyogenes M1 GAS;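 also: secreted streptokinase activity via plasminogen activation per viability signal from cell pellet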
T2 sequence (P10520 whole entry): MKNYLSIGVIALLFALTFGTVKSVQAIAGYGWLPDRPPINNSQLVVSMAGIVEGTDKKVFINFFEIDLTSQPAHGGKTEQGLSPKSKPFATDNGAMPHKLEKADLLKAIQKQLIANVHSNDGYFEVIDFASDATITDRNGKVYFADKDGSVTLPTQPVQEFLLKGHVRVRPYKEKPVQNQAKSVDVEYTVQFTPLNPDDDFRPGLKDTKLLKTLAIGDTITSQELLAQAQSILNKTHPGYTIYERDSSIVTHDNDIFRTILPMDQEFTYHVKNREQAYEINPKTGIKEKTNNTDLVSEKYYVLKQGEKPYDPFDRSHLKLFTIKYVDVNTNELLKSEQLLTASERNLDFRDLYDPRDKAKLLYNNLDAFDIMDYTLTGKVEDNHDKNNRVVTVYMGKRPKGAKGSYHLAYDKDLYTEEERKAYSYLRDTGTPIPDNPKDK

Streptococcus = test: GAS UMAA2166 growth inhibition – luminescence, BacTiterGlo, counter-screen for streptokinase expression inhibitor project, dose response (AID 1915); format: functional, organism-based;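 also: potency for reduction of bacterial viability or growth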
[3] = tested on: Streptococcus sp. 'group A'; test: Streptococcus pyogenes SK(-)GAS viability under kanamycin – luminescence, BacTiterGlo, confirmation, counter-screen for streptokinase expression inhibitor project, dose response (AID 1900); format: functional, organism-based
Caspase-3 = biological target: T3, Caspase-3 (Homo sapiens, UniProt P42574); format: functional;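 also: Dose-response selectivity test against caspase-3 for candidate inhibitors of sentrin-specific proteases (SENPs)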
T3 sequence (P42574 whole entry): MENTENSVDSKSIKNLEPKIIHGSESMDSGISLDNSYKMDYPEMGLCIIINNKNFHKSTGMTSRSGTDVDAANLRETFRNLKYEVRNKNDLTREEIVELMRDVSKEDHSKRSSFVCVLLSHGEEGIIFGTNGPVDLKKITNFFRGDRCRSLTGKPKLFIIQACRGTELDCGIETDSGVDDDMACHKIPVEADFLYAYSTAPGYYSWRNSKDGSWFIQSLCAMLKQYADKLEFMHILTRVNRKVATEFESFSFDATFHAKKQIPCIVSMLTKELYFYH

[4] = biological target: T4, Sentrin-specific protease 7 (Homo sapiens, UniProt Q9BQF6); format: functional;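 also: Luminescence-based dose-response confirmation of ultra-high-throughput screening hits, measuring inhibition of SENP7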
T4 sequence (Q9BQF6 whole entry): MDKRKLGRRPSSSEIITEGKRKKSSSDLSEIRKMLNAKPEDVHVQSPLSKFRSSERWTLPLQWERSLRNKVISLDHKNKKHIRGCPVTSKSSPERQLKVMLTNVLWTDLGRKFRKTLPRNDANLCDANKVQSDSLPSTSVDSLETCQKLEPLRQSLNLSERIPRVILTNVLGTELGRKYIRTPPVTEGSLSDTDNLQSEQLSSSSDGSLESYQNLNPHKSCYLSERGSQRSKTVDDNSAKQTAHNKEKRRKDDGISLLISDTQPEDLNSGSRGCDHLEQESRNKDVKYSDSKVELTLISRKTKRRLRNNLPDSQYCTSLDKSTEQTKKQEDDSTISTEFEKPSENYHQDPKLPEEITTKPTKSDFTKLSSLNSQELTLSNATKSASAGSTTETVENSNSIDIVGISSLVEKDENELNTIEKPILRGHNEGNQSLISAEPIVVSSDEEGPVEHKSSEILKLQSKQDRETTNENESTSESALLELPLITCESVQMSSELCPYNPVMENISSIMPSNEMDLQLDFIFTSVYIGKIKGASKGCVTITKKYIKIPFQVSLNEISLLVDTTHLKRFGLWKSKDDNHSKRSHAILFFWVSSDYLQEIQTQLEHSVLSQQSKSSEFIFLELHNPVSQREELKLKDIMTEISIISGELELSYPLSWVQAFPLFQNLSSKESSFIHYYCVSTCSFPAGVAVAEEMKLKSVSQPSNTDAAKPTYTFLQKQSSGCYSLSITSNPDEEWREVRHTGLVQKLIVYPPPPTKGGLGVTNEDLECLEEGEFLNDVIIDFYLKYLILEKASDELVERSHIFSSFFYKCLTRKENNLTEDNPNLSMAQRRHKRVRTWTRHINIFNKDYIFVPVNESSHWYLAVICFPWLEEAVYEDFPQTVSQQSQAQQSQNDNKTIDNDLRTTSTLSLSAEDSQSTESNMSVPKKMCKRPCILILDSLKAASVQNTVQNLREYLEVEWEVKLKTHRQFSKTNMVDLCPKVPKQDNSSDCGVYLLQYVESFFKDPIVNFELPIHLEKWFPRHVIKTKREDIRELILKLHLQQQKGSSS

[5] = biological target: T5, Sentrin-specific protease 8 (Homo sapiens, UniProt Q96LD8); format: functional;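 also: luminescence read-out of SENP8 inhibition, dose-response confirmation following an ultra-high-throughput screen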
T5 sequence (Q96LD8 whole entry): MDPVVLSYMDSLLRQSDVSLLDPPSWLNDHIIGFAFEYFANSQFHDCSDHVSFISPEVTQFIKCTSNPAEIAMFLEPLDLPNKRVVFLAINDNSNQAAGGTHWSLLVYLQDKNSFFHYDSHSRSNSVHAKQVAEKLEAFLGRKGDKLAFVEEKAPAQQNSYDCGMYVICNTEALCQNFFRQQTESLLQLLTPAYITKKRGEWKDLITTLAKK

Cytochrome P450 2C9 = Cytochrome P450 2C9 (Homo sapiens, UniProt P11712)
Cytochrome P450 2C9, sequence (P11712 whole entry): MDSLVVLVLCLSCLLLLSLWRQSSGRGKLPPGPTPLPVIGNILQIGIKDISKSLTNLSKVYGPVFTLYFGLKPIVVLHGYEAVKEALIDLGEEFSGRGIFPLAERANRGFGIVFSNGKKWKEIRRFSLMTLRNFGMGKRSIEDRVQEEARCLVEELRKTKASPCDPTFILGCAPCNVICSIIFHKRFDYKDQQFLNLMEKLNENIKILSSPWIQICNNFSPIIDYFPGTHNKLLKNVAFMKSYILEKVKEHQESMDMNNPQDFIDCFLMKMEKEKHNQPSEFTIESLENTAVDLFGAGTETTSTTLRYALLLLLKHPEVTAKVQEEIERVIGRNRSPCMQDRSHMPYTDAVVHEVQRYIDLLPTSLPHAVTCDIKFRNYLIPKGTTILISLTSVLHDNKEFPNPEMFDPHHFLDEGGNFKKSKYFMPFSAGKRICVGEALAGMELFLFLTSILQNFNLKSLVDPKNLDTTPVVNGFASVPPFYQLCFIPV

Cytochrome P450 3A4 = Cytochrome P450 3A4 (Homo sapiens, UniProt P08684);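 also: CYP3A4 tested as one member of a cytochrome P450 panel screen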
Cytochrome P450 3A4, sequence (P08684 whole entry): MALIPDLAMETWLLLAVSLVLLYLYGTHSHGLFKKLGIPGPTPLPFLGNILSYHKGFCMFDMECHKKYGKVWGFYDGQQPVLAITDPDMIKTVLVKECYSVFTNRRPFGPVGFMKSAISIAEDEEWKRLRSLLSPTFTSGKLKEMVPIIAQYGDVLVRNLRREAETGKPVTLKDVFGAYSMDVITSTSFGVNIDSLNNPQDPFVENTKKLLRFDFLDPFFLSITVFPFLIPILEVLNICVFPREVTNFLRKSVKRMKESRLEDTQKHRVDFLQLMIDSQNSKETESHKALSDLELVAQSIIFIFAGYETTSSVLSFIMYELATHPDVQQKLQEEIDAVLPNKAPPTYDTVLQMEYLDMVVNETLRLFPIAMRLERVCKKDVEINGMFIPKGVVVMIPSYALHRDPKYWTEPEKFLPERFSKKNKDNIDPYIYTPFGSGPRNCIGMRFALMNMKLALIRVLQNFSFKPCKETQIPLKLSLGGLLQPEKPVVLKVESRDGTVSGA

[6] = Vero E6 cell cytotoxicity, dose response, cytotoxicity control for non-replicating M. tuberculosis project, secondary assay (AID 492998); format: functional, VeroE6; conditions: Vero C1008
cells = format: functional
[7] = THP-1 cell cytotoxicity, dose response, cytotoxicity control for non-replicating M. tuberculosis project (AID 489025); format: functional
Cytochrome P450 2C19 = Cytochrome P450 2C19 (Homo sapiens, UniProt P33261); test: Cytochrome panel assay with activity outcomes. Panel member name: p450-cyp2c19 Compounds with AC50 equal or less than 10 uM are considered active; format: functional; conditions: read-out: AC50
Cytochrome P450 2C19, sequence (P33261 whole entry): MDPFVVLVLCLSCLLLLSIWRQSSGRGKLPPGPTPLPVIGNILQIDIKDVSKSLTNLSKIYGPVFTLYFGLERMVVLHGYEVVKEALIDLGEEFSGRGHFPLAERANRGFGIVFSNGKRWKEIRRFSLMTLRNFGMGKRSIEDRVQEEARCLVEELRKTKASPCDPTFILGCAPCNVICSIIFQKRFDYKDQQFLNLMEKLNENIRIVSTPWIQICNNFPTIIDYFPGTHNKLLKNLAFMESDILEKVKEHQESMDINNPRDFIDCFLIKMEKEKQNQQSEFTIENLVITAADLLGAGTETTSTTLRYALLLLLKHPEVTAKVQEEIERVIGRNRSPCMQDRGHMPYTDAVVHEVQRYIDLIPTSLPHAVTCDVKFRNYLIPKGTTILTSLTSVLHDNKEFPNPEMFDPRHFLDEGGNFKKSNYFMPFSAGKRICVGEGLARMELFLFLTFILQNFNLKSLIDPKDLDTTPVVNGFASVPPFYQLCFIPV

Cysteine protease ATG4B = biological target: T6, Cysteine protease ATG4B (Homo sapiens, UniProt Q9Y4P1); format: functional;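 also: Fluorescence-based dose-response confirmation assay measuring inhibition of ATG4B activity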
T6 sequence (Q9Y4P1 whole entry): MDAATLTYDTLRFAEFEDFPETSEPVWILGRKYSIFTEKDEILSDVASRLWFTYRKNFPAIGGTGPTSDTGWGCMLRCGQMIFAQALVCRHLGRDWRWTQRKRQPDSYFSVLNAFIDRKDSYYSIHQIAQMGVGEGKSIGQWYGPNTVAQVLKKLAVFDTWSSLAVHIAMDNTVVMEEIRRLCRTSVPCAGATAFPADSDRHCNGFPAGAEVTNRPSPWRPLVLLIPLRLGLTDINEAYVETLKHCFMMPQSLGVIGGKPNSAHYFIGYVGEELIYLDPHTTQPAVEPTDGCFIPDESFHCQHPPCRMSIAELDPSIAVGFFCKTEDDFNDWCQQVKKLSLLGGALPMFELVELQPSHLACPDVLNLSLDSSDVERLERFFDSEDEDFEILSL

Phospholipase A2 = Phospholipase A2 (Homo sapiens, UniProt P04054); format: functional;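 also: confirmatory dose-response counterscreen on phospholipase A2, testing hits that came from an ultra-high-throughput screen for ATG4B inhibitors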
Phospholipase A2, sequence (P04054 whole entry): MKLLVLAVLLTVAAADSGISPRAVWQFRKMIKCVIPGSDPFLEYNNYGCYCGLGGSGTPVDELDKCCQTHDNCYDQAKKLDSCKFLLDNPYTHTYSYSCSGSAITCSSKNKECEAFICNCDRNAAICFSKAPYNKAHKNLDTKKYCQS

H9c2 = test: cells; format: functional, cell-based; conditions: Rattus norvegicus, H9c2, Myocardium;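 also: confirmatory concentration-response retest of ultra-high-throughput screening hits for modulation of myocardial damage; cell death induced by hydrogen peroxide oxidative stress; compound pretreatment for 60 min then peroxide exposure for 2 h; potency is for protecting the cells against peroxide damage rather than for killing them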
[8] = viability of uninfected HEp-2 cells – cell-based, HTS, cytotoxicity control for RSV inhibitor project, dose response (AID 2410); format: functional; conditions: human respiratory syncytial virus

O=C(NCCC1=CCCCC1)NC12CC3CC(CC(C3)C1)C2
EC50 (H4): 6.24 µM (active) | CC50 [1]: > 40 µM (active) | AC50 (HeLa): 215 µM (active)

Cc1nc(N/N=C\c2ccc3c(c2)OCO3)sc1C
IC50 [2]: 39.1 µM (active) | EC50 (Streptokinase A): > 150 µM (not active) | EC50 (Streptococcus): 31.7 µM (active) | EC50 [3]: 23.6 µM (active) | IC50 (Caspase-3): 33.2 µM (active) | IC50 [4]: 12 µM (active) | IC50 [5]: 72.7 µM (active)

O=C(COc1ccc(Cl)cc1)Nc1ccc(N2CCN(C(=O)c3ccco3)CC2)cc1
AC50 (Cytochrome P450 2C9): 1.12 µM (inconclusive) | AC50 (Cytochrome P450 3A4): inconclusive

CCC(C)NC(=O)C1CCN(C(=O)c2ccccc2)CC1 (stereo not given)
AC50 (Cytochrome P450 3A4): inconclusive

OC(c1ccc(OCc2ccccc2)cc1)c1nnc(-c2ccccc2)o1 (stereo not given)
IC50 [2]: 33.2 µM (active) | EC50 (Streptokinase A): 77.8 µM (active) | EC50 (Streptococcus): > 150 µM (not active) | EC50 [3]: 19 µM (active) | IC50 (Caspase-3): 69.2 µM (active) | IC50 [4]: 12.8 µM (active) | IC50 [5]: 75.6 µM (active)

CC(C)c1nnc(NC(=O)c2c(O)c3cccc4c3n(c2=O)CCC4)s1
CC50 [6]: 17.1 µM (active) | IC50 (cells): 7.34 µM (active) | CC50 [7]: 8.21 µM (active)

COc1ccc2oc3ccc(OC)cc3c(=O)c2c1
IC50 [2]: 15.1 µM (active) | IC50 (Caspase-3): 11 µM (active) | IC50 [4]: 9.8 µM (active) | IC50 [5]: 69.1 µM (active)

C[C@]12CC[C@H]3c4ccc(O)cc4CC[C@@H]3[C@H]1CC[C@@H]2OC(=O)CCC1CCCC1
AC50 (Cytochrome P450 2C19): 6.31 µM (inconclusive) | AC50 (Cytochrome P450 3A4): inconclusive

CC(C)Nc1cc(C(C)(C)C)nc2c(-c3ccccc3)cnn12
EC50 (Streptokinase A): 13.6 µM (active) | EC50 (Streptococcus): 15.9 µM (active) | EC50 [3]: 6.01 µM (active) | AC50 (HeLa): 58.2 µM (active)

C=CCn1cccc(C(=O)Nc2ccc(Cl)cc2)c1=O
AC50 (HeLa): 99.8 µM (active)

O=C(Nc1nc2c(cc3c4c(cccc42)CC3)s1)c1ccccc1Cl
IC50 (Cysteine protease ATG4B): > 80 µM (inactive) | IC50 (Phospholipase A2): 15.7 µM (active)

O=C1N=C(N2CCC(Cc3ccccc3)CC2)S/C1=C/c1c[nH]nc1-c1ccccc1
AC50 (Cytochrome P450 3A4): inconclusive

CN(C)S(=O)(=O)c1ccc2[nH]cc(/C=C/c3nc4ccccc4c(=O)n3-c3ccccc3)c2c1
IC50 (H9c2): > 79 µM (inactive) | IC50 (Cysteine protease ATG4B): 18.6 µM (active) | IC50 (Phospholipase A2): 46.6 µM (inactive)

Cc1ccc(S(=O)(=O)Nc2ccccc2/C=N/c2nc3ccccc3n2C(C)C)cc1
CC50 [8]: 14.9 µM (active) | IC50 (Cysteine protease ATG4B): 15.1 µM (active) | IC50 (Phospholipase A2): 13.2 µM (active)

C=CCn1c(-c2oc3nc(-c4ccccc4)cc(-c4ccccc4)c3c2N)n[nH]c1=S
IC50 (Cysteine protease ATG4B): 21.5 µM (inactive) | IC50 (Phospholipase A2): 20.7 µM (inactive)
